According to US20120035180A1, “PHARMACEUTICAL COMPOSITION FOR TREATING CANCER COMPRISING CHLORIN E6-FOLIC ACID CONJUGATE COMPOUND AND CHITOSAN” (priority 2009, published 2012):

Key:
[1] = Photophysical parameters (triplet state, intercombinative conversion); format: physicochemical
Procedure: Values of ? and ? were determined after substantially transferring of all molecules of the studied substance in excited triplet state. In such conditions, ΔD=C Δε^Tl, wherein C indicates the molar concentration of the substance in solution, and l indicates the length of the optical way. As the standard to estimate γ, Pd(II)-octa ethyl porphyrin (Pd(II)-OEP) was selected, for which the γ value in benzol was considered as equal to one.

[2] = Spectral and fluorescent parameters of chlorin e6 conjugate in different systems; format: physicochemical
Procedure: Pigment-protein complexes have been formed by adding to the solution of human serum albumin (HAS) a specific amount of photosensitizer dissolved in the same buffer. […] Similarly, the photosensitizer was included in detergent micelle (Triton X-100, C=10^−3M).
The electronic absorption spectra of the subject solution were recorded on Specord UV-Vis. The fluorescence spectra and value of degree of fluorescence polarization (P) were recorded on an automatic spectrofluorimeter (Institute of Physics). Life time of photosensitizer fluorescence (ts) was estimated using an impulse fluorometer operating in the mode of photons counting.
The main feature of the absorption spectrum is intensive (ε=4.8 10^4 M^−1cm^−1) Qx (0-0) band at 660 nm, which falls into the spectral window of the majority of biological tissues.
Complex formation of chlorin e6 conjugate, and HSA, liposomes or detergent micelles leads to bathochromic shift in the absorption and fluorescence spectra of pigment. However, an increase in fluorescence photoresponse (B) was observed, which correlates with the growth of life time (ts) without changing of the Kravec integral value.

Hela cells [3] = experiment: Competition assay with exogenous folic acid in Hela cells; format: cell-based; conditions: 4 μM/l folic acid, 24 hours
From the text: Then, the sample was centrifuged, the supernatant was taken, and the pellet was rewashed with cooled Hank's solution. The obtained pellet was again transferred into Hank's solution.

Hela cells [4] = experiment: Accumulation in Hela cells; format: cell-based; conditions: for concentration in Hela cells: 2×10^−7 M/l, 37° C.
Procedure: The cellular accumulation and the targeted delivery of the photoactive compounds were investigated using Hela cells, which is one of the numerous tumor cell types that overexpress folate receptors.
Cells were cultivated for 3 days in medium 199, and transferred to Hank's solution/medium 199 (9/1). After 3 hours, the cell were collected by trypsin treatment from the substrate and placed in Hank's solution (10^5 κπ/ml). To cell suspensions, chlorin e6 conjugates were added at a concentration of 2×10^−7 M/l, and incubated at 37° C. After 1, 5, 10, 15, and 24 hours, the samples were centrifuged, the pellet was washed with the cooled Hank's solution, and transferred to Hank's solution at a concentration being equal to that in the initial suspension.

sarcoma M-1 [5] = experiment: Necrotic area in sarcoma M-1 after PDT; format: in vivo, rats; conditions: 10.0 mg/kg, 1 hr exposure after application
Procedure: After fixation, transverse sections of the tumor nodule in its highest diameter were made, and pictures were taken by a camera connected to a computer.
For quantitative assessment of necroses formed after PDT, computer analysis of color tints of histo-topographic tumor slides was performed using a special program.
The program included an algorithm of blue color identification (Evans blue), which stained viable areas of the tumor. Tumor areas killed from direct cytotoxic effect or due to structural-functional disorders of microcirculation were not stained in blue. The ratio of all non-stained dots to the total amount of dots in the fence of the tumor slide was considered to be the destruction efficiency.
For this purpose, a laser medical instrument “ ? 680-2000” (BIOSPEC, Moscow) was used to perform the exposure at a wavelength of 670 nm in a dose of 100 J/cm^2. The power density was 0.51 W/cm^2, the output power was 0.4 W, and the spot light diameter was 1 cm. Time of exposure was […]. Monitoring over radiating power was conducted by a universal power meter included in the laser device “ ? 680-2000”.

sarcoma M-1 [6] = experiment: Growth dynamics and growth inhibition of sarcoma M-1 after PDT; format: in vivo, rats; conditions: 2.5 mg/100 g + 100 J/cm^2 for 1 h
Procedure: The power density was 0.51 W/cm^2, the output power was 0.4 W, and the spot light diameter was 1 cm. […] Monitoring over radiating power was conducted by a universal power meter included in the laser device “ ? 680-2000”.

[γ-(6-aminohexyl)folic acid]-chlorin e6 [chlorin e6 conjugate]
τt (lifetime of excited triplet state, oxygen saturated) ([1]; H2O, pH 8.1): 2.5 μs | τt^0 (lifetime of excited triplet state, deoxygenated) ([1]; H2O, pH 8.1): 170 μs | τt (lifetime of excited triplet state, oxygen saturated) ([1]; HSA, H2O, pH 8.1): 14.7 μs | τt^0 (lifetime of excited triplet state, deoxygenated) ([1]; HSA, H2O, pH 8.1): 700 μs | τt (lifetime of excited triplet state, oxygen saturated) ([1]; Liposomes, H2O, pH 8.1): 1.4 μs | τt^0 (lifetime of excited triplet state, deoxygenated) ([1]; Liposomes, H2O, pH 8.1): 70 μs | γ (photoresponse of intercombinative conversion) ([1]; Liposomes, H2O, pH 8.1, standard Pd(II)-OEP): 078 | τt (lifetime of excited triplet state, oxygen saturated) ([1]; Pyridine): 0.3 μs | τt^0 (lifetime of excited triplet state, deoxygenated) ([1]; Pyridine): 140 μs | τt (lifetime of excited triplet state, oxygen saturated) ([1]; Triton X-100): 2.6 μs | τt^0 (lifetime of excited triplet state, deoxygenated) ([1]; Triton X-100): 230 μs | 1^00fl ([2]; Dimethyl sulfoxide): 672 nm | absorption maximum wavelength (Qx 0-0 band) ([2]; Dimethyl sulfoxide): 661 Nm | 1^00fl ([2]; H2O, pH 8.1): 664 nm | absorption maximum wavelength (Qx 0-0 band) ([2]; H2O, pH 8.1): 657 Nm | 1^00fl ([2]; HSA, pH 8.1): 669 nm | absorption maximum wavelength (Qx 0-0 band) ([2]; HSA, pH 8.1): 664 Nm | 1^00fl ([2]; Liposomes, pH 8.1): 670 nm | absorption maximum wavelength (Qx 0-0 band) ([2]; Liposomes, pH 8.1): 665 Nm | 1^00fl ([2]; Methanol): 667 nm | absorption maximum wavelength (Qx 0-0 band) ([2]; Methanol): 662 Nm | 1^00fl ([2]; Pyridine): 673 nm | absorption maximum wavelength (Qx 0-0 band) ([2]; Pyridine): 666 Nm | 1^00fl ([2]; Tetrahydrofuran): 673 nm | absorption maximum wavelength (Qx 0-0 band) ([2]; Tetrahydrofuran): 667 Nm | 1^00fl ([2]; Triton X-100, pH 8.1): 670 nm | absorption maximum wavelength (Qx 0-0 band) ([2]; Triton X-100, pH 8.1): 665 Nm | effect of free folic acid on uptake in Hela cells (Hela cells [3]): significantly reduced | concentration in Hela cells (Hela cells [4]; incubation time 1 hours): 0.40 relative units/10^4cl. | concentration in Hela cells (Hela cells [4]; incubation time 5 hours): 1.80 relative units/10^4cl. | concentration in Hela cells (Hela cells [4]; incubation time 10 hours): 2.50 relative units/10^4cl. | concentration in Hela cells (Hela cells [4]; incubation time 15 hours): 12.5 relative units/10^4cl. | concentration in Hela cells (Hela cells [4]; incubation time 24 hours): 15.0 relative units/10^4cl. | kinetic of binding with cells (Hela cells [4]; Hela cells): increases linearly over 20 hours | anti-tumor effect of PDT (sarcoma M-1 [5]): most prominent anti-tumor effect | Growth inhibition rate of sarcoma M-1 of rats in volume to the control (sarcoma M-1 [6]; day 7): 47.5 | Growth inhibition rate of sarcoma M-1 of rats in volume to the control (sarcoma M-1 [6]; day 10): 79.4 | Growth inhibition rate of sarcoma M-1 of rats in volume to the control (sarcoma M-1 [6]; day 12): 87.6 | Growth inhibition rate of sarcoma M-1 of rats in volume to the control (sarcoma M-1 [6]; day 14): 89.8 | Growth inhibition rate of sarcoma M-1 of rats in volume to the control (sarcoma M-1 [6]; day 17): 94.8 | Growth inhibition rate of sarcoma M-1 of rats in volume to the control (sarcoma M-1 [6]; day 19): 94.1
